Measured values taken from patent US6888015B2, “Sphingolipid synthesis inhibitor” (Japan Science and Technology Agency, priority 2001, dated 2005).

Columns and labels:
CHO cells = experiment: Contents of sphingolipids and phospholipids in cells; format: cell-based, Chinese hamster; details: 2.5 μM, 2 days
Procedure: CHO cells are seeded at density of 10×10^6 cells in 20 mL of F12 medium containing 10% NBS by per 150-mm dish, and incubated at 33° C. overnight. Then, after washed twice with 10 mL of serum-free F 12 medium, the cells are incubated in 20 mL of Nutridoma medium supplemented with or without 2.5 μM HPA-12 for 2 days. Each medium is replaced every 24 hours. After washed with PBS, the cells are harvested by scraping, and re-suspended in PBS. Then, lipids are extracted from the cells.
For analysis of phospholipids, extracted lipids are separated by TLC with a solvent of chloroform/methanol/acetic acid/H2O (volume ratio, 25:15:4:2).
Phosphorous contents in phospholipids are measured by the method disclosed in Document 4.
Contents of GlcCer and N-acetyl neuraminil lactosylseramide (GM3) are determined by densitometric analysis of lipids stained with Coomassie Brilliant Blue disclosed in Document 5.
Cer contents are determined by using a sn-1,2-diacylglycerol assay reagent kit (Amersham Pharmcia Biotech).

[1] = system: de novo synthesis of SM in CHO cells; experiment: Metabolic labeling of lipids with [14C]serine in CHO cells; format: cell-based, Chinese hamster
Procedure: CHO cells are cultured in Ham's F12 medium supplemented with 10% newborn bovine serum (NBS), penicillin G (100 unit/mL) and streptomycin sulfate (100 μg/mL) at the temperature of 33° C. and 5% CO2 atmosphere. In the case of HeLa cells, Dulbecco's minimum essential medium is used as a base medium instead of Ham's F12 medium.
Further, Nutridoma medium (Ham's F12 medium containing 1% Nutridoma-SP, product of Roche Molecular Biochemicals, and 25 μg/mL of gentamicin) is used as a serum-free medium. In the case when the medium is supplemented by DMSO or drugs dissolved in DMSO, the concentration of DMSO in culture medium is adjusted to be 0.01%.
CHO cells are seeded at the density of 1.0×10^6 cell in 5 mL of F12 medium containing 10% NBS, by per 60-mm dish, and cultured at 33° C. overnight. Then, the medium is changed to 1.5 mL of Nutridoma medium if necessary, various drugs are added and incubated at 4° C. for 15 minutes. Then, after addition of [^14C] serine (0.75 μCi) or [^14 C] choline (1.0 μCi) to the medium, cells were incubated at 33° C. for various periods of time.
Cells are washed twice with 2 mL of cold phosphate-buffered saline (PBS), and lysed with 900 μL of 0.1% sodium dodecyl sulfate (SDS). Then, 800 μL and 20 μL of lysate are used for lipid extraction and determination of protein concentration, respectively.
For the analysis of lipids labeled with [C^14C] serine, lipids were separated by TLC with a solvent consisting of methylacetate/n-propanol/chloroform/methanol/0.25%KCl (25:25:25:10:9, volume ratio) as a developing solvent.
Radioactive lipid separated on the TLC plates are detected with image analyzer depicted above. After the collection of gels from TLC plates by scraping, the radioactivity of each lipid is determined by liquid scintillation counting and normalized to the protein concentration of cells.

[2] = [14C]serine labeling, CHO cells
[3] = [14C]serine labeling, weaker than effect on SM (FIG. 2B)

## CCCCCCCCCCCC(=O)NC(CO)CC(O)c1ccccc1 (centres unmarked) [HPA-12, N-(3-hydroxy-1-hydroxymethyl-3-phenylprol)dodecaneamide]
CHO cells
  content of GM3: 120 % of the drug-untreated contro
  content of GlcCer: 150 % of the drug-untreated contro
  content of SM, lower than the drug-free control level by: 30%
  content of ceramide vs untreated: no significant difference
CHO cells; CHO cells
  Cer content: 0.40 ± 0.13 nmol/mg protein
  GM3 content: 8.5 ± 0.8 nmol/mg protein
  GlcCer content: 1.4 ± 0.1 nmol/mg protein
  PC content (composition of phospholipids): 47.5 ± 0.2 % of total lipids recovered
  PE content (composition of phospholipids): 30.6 ± 0.3 % of total lipids recovered
  PI/PS content (composition of phospholipids): 13.4 ± 0.3 % of total lipids recovered
  SM content (composition of phospholipids): 8.4 ± 0.1 % of total lipids recovered
CHO cells; drug-treated cells
  content of total phospholipids: 315±2 nmol/mg protein
[1]; 0.1 μM, 2-hour labeling with [14C]serine (FIG. 2A)
  formation of [14C]SM: significantly inhibits
[1]; 1 μM, time course up to 5 hours (FIG. 2B)
  formation of [14C] (SM), level relative to control: approximately 30 % of the drug-free control level
[1]; 2.5 μM drug, [14C]serine labeling, CHO cells (FIG. 1B)
  formation of [14C]SM: remarkably inhibited
[1]; 2-hour labeling with [14C]serine (FIG. 2A)
  concentration at which the inhibitory effect on [14C]SM formation reaches a plateau: around 1 μM
[1]; [2]
  formation of [14C]phosphatidylethanolamine (PE): does not affect
  formation of [14C]phosphatidylserine (PS): does not affect
[1]; [3]
  formation of [14C]Cer: significantly inhibited
  formation of [14C]GlcCer: significantly inhibited
